# Assay results: paper PMC11062894, “Protein-based bandpass filters for controlling cellular signaling with chemical inputs” (Nature Chemical Biology, 2023)
# Tested on: GEMS receptors with CBPA11 (BclXL–LD3 and BclXLhigh variants), STAT3-driven SEAP in HEK293T cells
# Assay: GEMS SEAP reporter assay, CBPA11 (BclXLhigh, LD3-v and BclXL-v variants) with A-1155463
# Assay type: cell-based
# Design: key to Raw data (SEAP) / SEAP, replicate values / Raw data of Figure 5b / Raw data Figure 5e / Raw data of Independent repeat of CBPA11-v1 vs CBPA11-v1-LD3v3 / Raw data of Independent repeat of CBPA11-v3 vs CBPA11-v3-LD3v3 / Raw data of Figure 5b, CBPA11-v1-LD3v3 (SEAP reporter raw value, single replicate) / Raw data of Figure 5b, CBPA11-v1 (SEAP reporter raw value, single replicate): SEAP activity in U/L in culture supernatant
# Settings: SuppFigure 9c
# Excerpt: To rationally design a CBP responding to a chemical input, we used BclXL as the druglow receptor, LD3 as the designed binder and a designed BclXL variant as the drughigh receptor (referred to as BclXLhigh) to construct a CBP responsive to BclXL inhibitors (Fig. 4a). To design BclXLhigh, we used a multistate design computational protocol described elsewhere[26] […] Thus, BclXLhigh-v(1–3) were chosen as the functional drughigh receptors, resulting in three A-1155463-controlled CBPs (referred to as CBPA11-v(1–3)) (Fig. 4c–e).
# HEK293T cells were seeded in a 96-well plate 24 h before transfection. The transfection mix in each well consisted of 3 ng of constitutive human CMV promoter driven mammalian STAT3 expression vector (PhCMV-STAT3-pA), 30 ng of STAT3-induced reporter expression (OStat3-PhCMVmin-SEAP-pA) and 50 ng of expression vectors for each GEMS receptor chain (PSV40-IgK-(drughigh receptor)-EpoRm-IL-6RBm-pA and PSV40-IgK-(druglow receptor-GGGGSX3-LD3)-EpoRm-IL-6RBm-pA). For the specific drughigh receptor and druglow receptor used in the different cellular assays, they are indicated as wild type or with mutations. Then, plasmid DNA was mixed with 50 μl opti-MEM (Thermo Fisher) and 600 ng of polyethyleneimine (Polysciences, catalog no. 24765-1). For drug treatment experiments, drugs were added 12 h post-transfection and incubated with cells for 24 h before the SEAP reporter detection assay.
# SEAP activity (U l^−1) in cell culture supernatants was quantified by kinetic measurements at 405 nm (1 minute per measurement for 30 cycles) of absorbance increase due to phosphatase-mediated hydrolysis of para-nitrophenyl phosphate (pNPP).
# Binding affinities of SPR drug competition assays were calculated using three-parameter nonlinear regression in GraphPad Prism (v.8.3.0). Representative data of cell assays are presented as individual values and mean values (bars). n = 3 refers to biological replicates. All IC50 or EC50 values of cell assays reported were calculated using four-parameter nonlinear regression ± s.d. Bandpass features of cutoff concentrations and Bandwidth90% were estimated based on the curve fitted using bell-shaped curve nonlinear regression in GraphPad Prism (v.8.3.0). […]
# Supplementary Figure 4: Design, screening and validation of BclXLhigh variants. a) Screening of BclXLhigh variants in the GEMS platform. […]
# Dissociation constant measurement of BclXLhigh-v(1-3) and LD3. Equilibrium curves are fitted using […]
# BclXLhigh-v1 (purple), BclXLhigh-v2 (blue), […]
# a) Bcl2high-based bandpass filter designs were developed and to respond to different concentrations of […]
# corresponding inhibitor. c) Screening of Bcl2high-based bandpass filter variants in the GEMS platform.
# The designed binder LD3 was fused to the druglow-receptor (PSV40-IgK-Bcl2-LD3-EpoRm-IL-6RBm-pA) in one EpoR chain and Bcl2high variants with the insensitive Bcl2 (iBcl2) as control in the other EpoR chain (PSV40-IgK-Bcl2high-EpoRm-IL-6RBm-pA). HEK293T cells were transfected with indicated […]
# the mean of six biological replicates ± s.d., overlaid with a scatter dot plot of the original data points.
# (1 picture or pasted object on this page, not shown here)
# Supplementary Figure 6: Binding affinities and drug resistances of Bcl2high-v(2,4,5) assessed by […]
# a) Measurement of dissociation constants for Bcl2high-v(2,4,5) and LD3 interactions. Equilibrium curves […]
# Bcl2high-v(2,4,5) measured by SPR. 5 μM of Bcl2 or indicated variants were mixed with 10 μM of […]
# Bcl2high-v2 (red), Bcl2high-v4
# Supplementary Figure 7: Screening of LD3 variants in CBPA11-v(1-3) and raw data of CBPA11-v(1,3) with LD3-v3 variant. a-c) Screening of LD3 and LD3-v(1-3) variants in complex with BclXL for more sensitive CBPA11-v1 (a), CBPA11-v2 (b), CBPA11-v3 (c) in the GEMS platform. The LD3 variants replaced the role of LD3 (PSV40-IgK-BclXL-LD3-v(1-3)-EpoRm-IL-6RBm-pA) in one EpoR chain and BclXLhigh-v(1-3) in the other EpoR chain (PSV40-IgK-BclXLhigh-V(1-3)-EpoRm-IL-6RBm-pA). HEK293T cells were transfected with […]
structure (smiles),measurement,setting,value
CN(C)CC#Cc1ccc(OCCCc2sc(N3CCc4cccc(C(=O)Nc5nc6ccccc6s5)c4C3)nc2C(=O)O)c(F)c1 [A-1155463],Raw data (SEAP),"LD3, A-1155463 316 nM",61.2138
same,Normalized data (SEAP),"LD3, A-1155463 1000 nM",55.4364
same,Raw data (SEAP),"LD3, A-1155463 1000 nM",44.3919
same,Normalized data (SEAP),"LD3, A-1155463 3160 nM",36.9566
same,Raw data (SEAP),"LD3, A-1155463 3160 nM",29.5938
same,Normalized data (SEAP),"LD3, A-1155463 10000 nM",17.181
same,Raw data (SEAP),"LD3, A-1155463 10000 nM",13.758
same,Normalized data (SEAP),"LD3v1, A-1155463 1 nM",5.697
same,Raw data (SEAP),"LD3v1, A-1155463 1 nM",3.397
same,Normalized data (SEAP),"LD3v1, A-1155463 3.16 nM",9.008
same,Raw data (SEAP),"LD3v1, A-1155463 3.16 nM",5.371
same,Normalized data (SEAP),"LD3v1, A-1155463 10 nM",34.145
same,Raw data (SEAP),"LD3v1, A-1155463 10 nM",20.3588
same,Normalized data (SEAP),"LD3v1, A-1155463 31.6 nM",55.6344
same,Raw data (SEAP),"LD3v1, A-1155463 31.6 nM",33.1716
same,Normalized data (SEAP),"LD3v1, A-1155463 100 nM",100
same,Raw data (SEAP),"LD3v1, A-1155463 100 nM",59.6244
same,Normalized data (SEAP),"LD3v1, A-1155463 316 nM",84.0823
same,Raw data (SEAP),"LD3v1, A-1155463 316 nM",50.1335
same,Normalized data (SEAP),"LD3v1, A-1155463 1000 nM",65.4287
same,Raw data (SEAP),"LD3v1, A-1155463 1000 nM",39.0114
same,Normalized data (SEAP),"LD3v1, A-1155463 3160 nM",35.6708
same,Raw data (SEAP),"LD3v1, A-1155463 3160 nM",21.2685
same,Normalized data (SEAP),"LD3v1, A-1155463 10000 nM",16.487
same,Raw data (SEAP),"LD3v1, A-1155463 10000 nM",9.83
same,Normalized data (SEAP),"LD3v2, A-1155463 1 nM",18.0278
same,Raw data (SEAP),"LD3v2, A-1155463 1 nM",19.4289
same,Normalized data (SEAP),"LD3v2, A-1155463 3.16 nM",13.8407
same,Raw data (SEAP),"LD3v2, A-1155463 3.16 nM",14.9163
same,Normalized data (SEAP),"LD3v2, A-1155463 10 nM",72.4321
same,Raw data (SEAP),"LD3v2, A-1155463 10 nM",78.0614
same,Normalized data (SEAP),"LD3v2, A-1155463 31.6 nM",98.2639
same,Raw data (SEAP),"LD3v2, A-1155463 31.6 nM",105.901
same,Normalized data (SEAP),"LD3v2, A-1155463 100 nM",100
same,Raw data (SEAP),"LD3v2, A-1155463 100 nM",107.772
same,Normalized data (SEAP),"LD3v2, A-1155463 316 nM",90.2158
same,Raw data (SEAP),"LD3v2, A-1155463 316 nM",97.2273
same,Normalized data (SEAP),"LD3v2, A-1155463 1000 nM",79.3099
same,Raw data (SEAP),"LD3v2, A-1155463 1000 nM",85.4738
same,Normalized data (SEAP),"LD3v2, A-1155463 3160 nM",45.5807
same,Raw data (SEAP),"LD3v2, A-1155463 3160 nM",49.1232
same,Normalized data (SEAP),"LD3v2, A-1155463 10000 nM",26.3886
same,Raw data (SEAP),"LD3v2, A-1155463 10000 nM",28.4395
same,Normalized data (SEAP),"LD3v3, A-1155463 1 nM",53.0121
same,Raw data (SEAP),"LD3v3, A-1155463 1 nM",3.893
same,Normalized data (SEAP),"LD3v3, A-1155463 3.16 nM",45.4436
same,Raw data (SEAP),"LD3v3, A-1155463 3.16 nM",3.337
